# Test results: patent US20240277695A1, “FOXO INHIBITORS FOR USE IN THE TREATMENT OF DISEASES CAUSED BY ABNORMAL PROCESSING OF TDP-43 AND/OR FUS PROTEINS” (Administración General de la Comunidad Autónoma de Euskadi, priority 2020, published 2024)
# Entries after “also recorded” stand apart in the source; their conditions may differ.
# Key:
# [1] = tested on: TDP-43 or FUS-silenced human immortalized myoblasts (cell line 8220); assay: Metabolic flux analysis (ECAR/OCR) in TDP-43 or FUS-silenced myoblasts; type: cell-based; conditions: 30 nM
# From the text: The translocation of TDP-43 to cytoplasm is involved in myoblast differentiation and myotube generation (see reference 14). […] Thus, given the potential implication of TDP-43 and FUS in myogenesis, we modelled the loss-of-function of these genes in the human immortalized myoblast cell line 8220 by treating these cells with shRNA-expressing lentiviral particles for TDP-43 or FUS, and further analyzed any change on cell morphology, growth and myogenic capacity (FIG. 1D).
# Molecular signaling factors and reprogramming of energy metabolism are considered crucial regulators of myogenesis during adult muscle regeneration. Since TDP-43 controls skeletal muscle glucose homeostasis, we wanted to investigate whether myogenic defects induced by loss of TDP-43, and in extension of FUS, may be mediated by abnormalities of glucose metabolism. Regarding the latest, various studies conducted in Drosophila, zebrafish and mouse myoblasts have highlighted glucose metabolism as part of the core myogenic program because of its ability to provide both the rapid source of energy and the building blocks (amino acids and nucleotides) that are required for biomass production during the formation of syncytial muscles. […]
# [2] = tested on: primary myoblasts from patients with ALS; assay: Myogenic capacity of primary myoblasts from patients with ALS; type: cell-based, human; conditions: 30 nM; primary myoblasts from sporadic and familial ALS patients
# From the text: (§1) We looked at preliminary links between the findings in genetically-induced myoblasts and features of myoblasts from patients with ALS. To this aim, we cultured primary myoblasts obtained from muscle biopsies of two patients with ALS (patient 1 is sporadic [sALS] and patient 2 is familial [fALS]) and one control. […] Changes in TDP-43 localization were accompanied by an altered subcellular distribution of FoxO1, as reflected by increased levels of FoxO1 and FoxO3 in nuclei (FIG. 6A,C) and enhanced nuclear-to-cytosolic ratio in both patients (FIG. 6C). Remarkably, nuclear localizations of TDP-43 and FoxO1 were inversely associated in patient 2 (FIG. 6D).
# To study whether these pathological features were linked to functional outcomes of ALS muscle, we studied the myogenic capacity of ALS myoblasts and the effect of FoxO inhibition.
# [3] = tested on: primary ALS myoblasts; assay: Glycolytic flux (ECAR) of primary ALS myoblasts; type: cell-based, human
# From the text: as §1
# As expected, alterations of FoxO1 in ALS myoblasts were accompanied by aberrant glycolytic flux, as indicated by lower ECAR values after addition of glucose to the media (FIG. 6F).
# [4] = tested on: Caz or Tbph-silenced flies; assay: Longevity assay in flies with muscle-conditioned silencing of Caz or Tbph; type: in vivo, Drosophila melanogaster; conditions: 30 μM, particularly iCaz and iTbph^attp40
# From the text: (§2) FIG. 7. Foxo inhibition improves muscle function and lifespan in Drosophila flies with muscle-conditioned deficiency of TDP-43 or FUS. […] F, Caz or Tbph-silenced flies have reduced survival times, as indicated by Kaplan-Meier curves (left panel) and median lifespan (right panel) (n=100 flies per group). […] This effect was particularly noticeable in iCaz and iTbph^attp40) fly lines (n=100 flies per group). *p<0.05: **p<0.01, ***p<0.001.
# We performed longevity assays to further characterize these fly models. Either of the Caz or Tbph-silenced flies manifested dramatic reductions of survival times when compared to control group, as indicated by Kaplan-Meier curves and median lifespan (FIG. 7F). […] This effect was particularly noticeable in iCaz and iTbph^attp40 fly lines (FIG. 7G).
# [5] = tested on: control Drosophila strain UAS-Dicer2-+-Mef2-GAL4; assay: Climbing assay and lifespan of treated control flies; type: in vivo, Drosophila melanogaster; conditions: 30 μM
# From the text: as §2
# After knowing that FoxO inhibition provides benefits to muscle cells in vitro, we wanted to further test the effects of targeting FoxO factors on muscle function under the context of TDP-43 or FUS loss-of-function in vivo. To that purpose, we generated various Drosophilamodels with muscle-conditioned silencing of either Cabeza (Caz) or Tbph genes, which are orthologs of human FUS or TARDBP, respectively. […] Drosophila has only one ortholog for mammalian FoxO factors, which is called foxo. Although the affinity of AS1842856 for Drosophila foxo has never been tested, the fact that FoxO DNA-binding sites, with which the inhibitor interacts, are well conserved among species, including Drosophila melanogaster (FIG. 7B) provides enough rationale to test its efficacy in Drosophila models.
# [6] = tested on: iTbph^pkk(108254) Drosophila model; assay: Adult pharate lethality / pupa eclosion assay; type: in vivo; conditions: 30 μM
# Description: FIG. 8. […] A) Number of total pupas and the eclosioned ones were counted in different 5 tubes each group. […] T-test was performed ***p<0,001. Values are expressed as percentage mean+SD.
# As mentioned in Example 6, iTbph^pkk(108254) Drosophila completed the metamorphosis from larvae to adult within the pupa (a phase known as pharate), but were not able to eclode from the pupa and, consequently, died. This feature is termed as adult pharate lethality and allowed us to perform assays with which to judge the efficacy of FoxO inhibition.
compound,measurement,setting,value
CCn1cc(C(=O)O)c(=O)c2c(N)c(F)c(NC3CCCCC3)cc21 [AS1842856],repressed glycolytic traits (glucose- and oligomycin-stimulated ECAR),[1]; proliferating myoblasts silenced for either TDP-43 or FUS,significant recovery
same,mitochondrial ATP production,[1]; shTDP-43 and shFUS-treated myoblasts,enhanced mitochondrial ATP production; also recorded: improved the mitochondrial ATP production
same,myogenic abnormalities,[2],alleviated
same,basal glycolysis rate (ECAR after glucose),[3],corrected; also recorded: improved the basal glycolysis rate
same,"survival (Kaplan-Meier, median lifespan)",[4],higher survival rates
same,toxicity on lifespan,[5],lack of toxicity
same,toxicity on motor function,[5],lack of toxicity
same,eclosion efficiency of pupas,[6]; UAS-Dicer2-iTbph^pkk(108254)-Mef2-GAL4,significantly ameliorates
same,pharate lethality in control flies,[6]; control flies,did not produce pharate lethality
same,mitigation of pharate lethality,[6]; iTbph^pkk(108254) Drosophila,approximately 20%
